Measured values taken from patent US11583494B2, “Pharmaceutical composition for nasal administration” (MEDILABO RFP, INC., priority 2017, dated 2023).

Columns and labels:
[1] = target: T1, Aβ oligomers (Homo sapiens, UniProt P05067, DEL693-693); assay type: in vivo, mouse
T1 construct: from tissue; host or cells: brain (hippocampus) of APP OSK transgenic mice
Description: (§1) Male APP OSK mice (Tomiyama et al. J Neurosci. 2010; 30:4845-56) aged 11 months were prepared. APP OSK mice weigh about 30 g. The 60 APP OSK mice were classified into five groups A to E, each containing 12 mice. Separately, 12 wild-type mice (non-Tg littermate) of the same age in month were prepared.
(§2) Administration was performed without anesthesia using a rodent oral sonte for oral administration, a Pipetman (white tip) for nasal administration, and an injection syringe for subcutaneous administration.
According to the procedure described in Umeda et al. Brain 2016; 139:1568-86, Aβ oligomers (Aβ oligomers are considered to cause phosphorylation of tau and reduction in synaptophysin), synaptophysin (marker protein of synapse), and phosphorylated tau were stained by immunohistological staining. For staining Aβ oligomers, 11A1 antibody (available from Immune-Biological laboratories Co., Ltd.) was used, and for staining synaptophysin, SVP-38 antibody (available from Sigma) was used. Mouse monoclonal PHF-1 antibody (anti p-Ser396/404-tau antibody, provided by Dr. Peter Davies, Albert Einstein College of Medicine) was used for staining phosphorylated tau. After staining, Aβ oligomers, synaptophysin, and phosphorylated tau were quantified by using NIH image-J.

[2] = system: AD model mouse; experiment: Oral administration to AD model mouse in which Aβ accumulates; assay type: in vivo
[3] = system: FTD model mouse; experiment: Oral administration to FTD model mouse in which tau accumulates; assay type: in vivo
[4] = Impaired liver function: hepatic enzymes AST (GOT) and ALT (GPT) in serum; assay type: in vivo, mouse; details: 1 month
Description: as §1, §2
Blood was sampled from mice after end of the behavior test, and serum was separated from the blood to prepare a serum sample. Hepatic enzymes AST (GOT) and ALT (GPT) in the serum sample were measured, and the degree of impaired liver function by rifampicin was compared.

[5] = target: α synuclein (Homo sapiens, UniProt P37840); experiment: Formation of oligomers in vitro, α synuclein; assay type: biochemical
[6] = system: tau; experiment: Formation of oligomers in vitro, tau; assay type: biochemical
[7] = target: T2, Aβ (Homo sapiens, UniProt P05067); experiment: Formation of oligomers in vitro, Aβ; assay type: biochemical
T2 construct: Rifampicins have the action of suppressing formation of oligomers of amyloid β, tau, and α synuclein

[8] = system: APP OSK mouse; experiment: Behavior test: space reference memory of mouse, Morris water maze; assay type: in vivo; details: 1 month
Description: as §1, §2
The behavior test was performed by measuring space reference memory of mouse using a Morris water maze according to the method of Umeda et al. Brain 2016; 139:1568-86.

CO[C@H]1/C=C/O[C@@]2(C)Oc3c(C)c(O)c4c(O)c(c(/C=N/N5CCN(C)CC5)c(O)c4c3C2=O)NC(=O)/C(C)=C\C=C\[C@H](C)[C@H](O)[C@@H](C)[C@@H](O)[C@@H](C)[C@H](OC(C)=O)[C@@H]1C [Rifampicin, 3-(4-methylpiperazinyliminomethyl)rifamycin SV]
Effect of reducing Aβ oligomers in comparison for the same dosage (FIG. 3) ([1]; Example 1: nasal, […], versus oral and subcutaneous […]): highest | Quantification of Aβ oligomers (FIG. 3) ([1]; any of oral (Comparative Example 1), nasal (Example 1, Example 2), subcutaneous (Reference Example 3)): reduced to at least the same level as that in wild-type mouse | Cognitive function of mouse [2]: recovery of the cognitive function | Cognitive function of mouse [3]: recovery of the cognitive function | Elevation of AST in comparison with CMC-administered APP OSK mouse ([4]; Example 2: nasal, 0.05 mg/day): Slight elevation | Change of ALT ([4]; any administration method (oral, nasal, subcutaneous)): no significant change was observed | Formation of oligomers of α synuclein [5]: suppresses formation of oligomers | Formation of oligomers of tau [6]: suppresses formation of oligomers | Formation of oligomers of Aβ [7]: suppresses formation of oligomers | Ameliorating effect on disturbance of memory (FIG. 1) ([8]; Example 2: nasal, 0.05 mg/day): reached to the same level as in wild-type mouse | Ameliorating effect on disturbance of memory compared with oral administration (Comparative Example 1, […]) ([8]; Example 2: nasal, dosage one-fifth (0.05 mg/day)): higher than the case of oral administration | Amelioration of disturbance of memory (FIG. 1) ([8]; any of oral, nasal and subcutaneous administration, APP OSK mice): amelioration of disturbance of memory of APP OSK mouse was confirmed
